Where two headings read alike, the source gives them in different places.
Key:
[1] = target: T1, NAMPT (Homo sapiens, UniProt P43490); assay: Biochemical inhibition assay: NAMPT enzymatic reaction, NMN quantified by mass spectrometry; conditions: read-out: Biochem IC50
T1 construct: His tag; host or cells: E. coli
In short: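 Inhibition of E. coli-expressed His-tagged human NAMPT, measured as NMN formation by mass spectrometry after a 30 min room-temperature reaction containing 1 μM NAM, 100 μM PRPP and 2.5 mM ATP.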

[2] = system: A2780 cells; assay: In-vitro cell proliferation assay (SRB), A2780 cells; assay type: cell-based; conditions: Homo sapiens, A2780, 72 h, A2780 cells, 72 hours, read-out: A2780 IC50
In short: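 Cells were plated overnight at 37° C., 5% CO2, then exposed to serially diluted compounds (0.1% DMSO final) for 72 hours. Viable cells were measured by sulforhodamine B staining after TCA fixation, read at 570 nm; media-only background was subtracted before % inhibition was calculated.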

T1 sequence (P43490 whole entry): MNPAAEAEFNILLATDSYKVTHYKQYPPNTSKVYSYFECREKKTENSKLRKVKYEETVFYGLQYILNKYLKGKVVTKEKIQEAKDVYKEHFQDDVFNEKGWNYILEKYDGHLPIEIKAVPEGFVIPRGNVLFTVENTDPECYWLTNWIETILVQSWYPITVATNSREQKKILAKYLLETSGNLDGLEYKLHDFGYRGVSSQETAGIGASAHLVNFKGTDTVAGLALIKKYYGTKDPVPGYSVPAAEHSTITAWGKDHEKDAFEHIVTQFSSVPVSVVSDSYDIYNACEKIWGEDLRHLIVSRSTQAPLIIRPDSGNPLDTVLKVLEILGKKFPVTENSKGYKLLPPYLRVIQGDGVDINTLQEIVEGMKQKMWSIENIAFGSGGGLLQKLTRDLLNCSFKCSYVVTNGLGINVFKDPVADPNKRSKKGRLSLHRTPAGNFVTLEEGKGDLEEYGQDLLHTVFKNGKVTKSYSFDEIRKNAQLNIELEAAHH

SMILES | IC50 ([1]; NAMPT enzymatic assay) [nM] | IC50 ([2]; SRB) [nM] | IC50 ([1]; NAMPT enzymatic reaction) [nM] | IC50 ([2]; SRB assay) [nM]
O=C(NCc1ccc(S(=O)(=O)c2cnn(-c3ccc(F)cc3)c2)cc1)c1cc2ccncc2s1 [N-({4-[1-(4-fluorophenyl)-1H-pyrazole-4-sulfonyl]phenyl}methyl)thieno[2,3-c]pyridine-2-carboxamide] | 4.5 | 6.2 | – | –
COc1ccc(S(=O)(=O)c2ccc(CNC(=O)c3cc4ccncc4o3)cc2)cc1Cl [N-({4-[(3-chloro-4-methoxybenzene)sulfonyl]phenyl}methyl)furo[2,3-c]pyridine-2-carboxamide] | – | 1.8 | 7.3 | –
O=C(NCc1ccc(S(=O)(=O)c2cccc(N3CCCCC3)c2)cc1)c1ccc2nccn2c1 | 11.4 | 3.4 | – | –
O=C(NCc1ccc(S(=O)(=O)c2ccc(CO)cc2)cc1)c1cc2ccncc2o1 | 4.9 | 6.2 | – | –
O=C(NCc1ccc(S(=O)(=O)c2ccc(Cl)c(C(F)(F)F)c2)cc1)c1cc2ccncc2s1 [N-[(4-{[4-chloro-3-(trifluoromethyl)benzene]sulfonyl}phenyl)methyl]thieno[2,3-c]pyridine-2-carboxamide] | – | – | 10 | 3.4
O=C(NCc1ccc(S(=O)(=O)c2cc(F)ccc2CO)cc1)c1ccc2nccn2c1 | 10.4 | 65 | – | –
COc1ccccc1S(=O)(=O)c1ccc(CNC(=O)c2cc3ccncc3o2)cc1 [N-({4-[(2-methoxybenzene)sulfonyl]phenyl}methyl)furo[2,3-c]pyridine-2-carboxamide] | – | 26.5 | 18.9 | –
CC(C)COc1ccc(S(=O)(=O)c2ccc(CNC(=O)c3ccc4nccn4c3)cc2)cc1 | 2.2 | 2.7 | – | –
N#Cc1cccc(S(=O)(=O)c2ccc(CNC(=O)c3cc4ccncc4o3)cc2)c1 [N-({4-[(3-cyanobenzene)sulfonyl]phenyl}methyl)furo[2,3-c]pyridine-2-carboxamide] | – | 12.6 | 15.4 | –
COc1cccc(S(=O)(=O)c2ccc(CNC(=O)c3cc4cnccc4[nH]3)cc2)c1 [N-({4-[(3-methoxybenzene)sulfonyl]phenyl}methyl)-1H-pyrrolo[3,2-c]pyridine-2-carboxamide] | – | – | 7 | 4
Cc1cncc(S(=O)(=O)c2ccc(CNC(=O)c3ccc4nccn4c3)cc2)c1 [N-{[4-(5-methylpyridine-3-sulfonyl)phenyl]methyl}imidazo[1,2-a]pyridine-6-carboxamide] | 36.8 | 7.1 | – | –
CC(=O)c1ccccc1S(=O)(=O)c1ccc(CNC(=O)c2cnc3[nH]ncc3c2)cc1 [N-({4-[(2-acetylbenzene)sulfonyl]phenyl}methyl)-1H-pyrazolo[3,4-b]pyridine-5-carboxamide] | – | 11.4 | 3.6 | –
Cc1ccc(S(=O)(=O)c2ccc(CNC(=O)c3cnc4[nH]ncc4c3)cc2)c(C)c1 [N-({4-[(2,4-dimethylbenzene)sulfonyl]phenyl}methyl)-1H-pyrazolo[3,4-b]pyridine-5-carboxamide] | – | 71.6 | 61.2 | –
Cc1c(Cl)cccc1S(=O)(=O)c1ccc(CNC(=O)c2cnc3[nH]ncc3c2)cc1 [N-({4-[(3-chloro-2-methylbenzene)sulfonyl]phenyl}methyl)-1H-pyrazolo[3,4-b]pyridine-5-carboxamide] | – | 16.1 | 36.9 | –
O=C(NCc1ccc(S(=O)(=O)c2cc(C(F)(F)F)ccc2OCc2ccccc2)cc1)c1cc2cnccc2[nH]1 | 130 | 25.9 | – | –
O=C(NCc1ccc(S(=O)(=O)c2cccc(OC(F)F)c2)cc1)c1cnc2nccn2c1 | 2.1 | 5 | – | –
Cc1ccc(F)c(S(=O)(=O)c2ccc(CNC(=O)c3cnc4nccn4c3)cc2)c1 | – | 27.5 | 6.8 | –
O=C(NCc1ccc(S(=O)(=O)c2cccc3c2sc2ccccc23)cc1)c1cnc2nccn2c1 | 1.8 | 2 | – | –
O=C(NCc1ccc(S(=O)(=O)c2cc(OC(F)(F)F)ccc2Cl)cc1)c1cc2cnccc2[nH]1 [N-[(4-{[2-chloro-5-(trifluoromethoxy)benzene]sulfonyl}phenyl)methyl]-1H-pyrrolo[3,2-c]pyridine-2-carboxamide] | 53.1 | 12 | – | –

Reference: US12336981B2, “Compounds and compositions for the inhibition of NAMPT” (Valo Health, Inc., priority 2010, dated 2025)
